The values that follow come from patent publication US20130315830A1, “PSMA as a BioMarker for Androgen Activity in Prostate Cancer” (Cornell University, priority 2012, published 2013).

The assay concerns LAPC-4, expressing wild-type AR.

With `C[C@]12CCC(=O)C[C@@H]1CC[C@@H]1[C@@H]2CC[C@]2(C)[C@@H](O)CC[C@@H]12` [DHT, 5α-dihydrotestosterone], the PSMA expression entry is given as “low level of PSMA”.
